# Source: patent US20110257145A1, “METHOD OF TREATING NEUROLOGICAL DISEASES” (THE BOARD OF TRUSTEES OF THE UNIVERSITY OF ILLINOIS, priority 2008, published 2011)
# Read-outs that look alike come from different tables or passages of the source.
# How the values were obtained:
# [1] = biological target: mouse PKCα (Mus musculus, UniProt P20444); assay: PKC binding affinity
# Description: ClogP and topological polar surface area (tPSA) values were calculated (Table 1). ClogP values for the tested compounds ranged from 0.92 to 4.67. The tPSA values were in the range of 61.80-90.90. […] The binding affinities of the compounds for mouse PKCα were determined as described previously. The Ki values for each of the compounds 2, 3, 6, 7, and 9-14, and known […] bryostatin 1 and SAHA are listed in Table 1.
# [2] = system: HEK293 cells stably transfected with human APP; assay: sAPPα ELISA; assay type: cell-based
# Description: (§1) sAPPα and Aβ40 detection: […] cell lines stably transfected with human APP were maintained in Dulbecco's modified Eagle's medium (DMEM) with 10% fetal bovine serum (FBS). Cells were seeded onto 6-well plates, and incubated at 37° C. overnight. Compounds 9-14 were first dissolved in dimethyl sulfoxide (DMSO) as a 10 mM stock and diluted into the respective concentrations with fresh DMEM with 10% FBS. After exposure overnight, the cell medium was replaced by fresh medium containing the PKC agonist. After incubation for 48 hours, the medium was collected, and both the soluble APP (sAPPα) and Aβ40 levels in the medium were determined by using the sAPPα and Aβ40 ELISA kits obtained from Biosource, Camarillo, Calif. according to the manufacturer's instructions.
# In FIG. 1, the data are presented as percent of control±SEM.
# [3] = system: HEK293 cells stably transfected with human APP; assay: Aβ40 ELISA; assay type: cell-based; conditions: 24 h
# Description: as §1
# It is theorized, but not relied upon, that if APP synthesis is held relatively constant, the production of Aβ decreases if more of the APP is processed through the α-secretase pathway. To confirm that treatment with a present benzolactam enhances the α-secretase APP-processing pathway, compounds 9-14 were examined to determine whether the increased levels of sAPPα corresponds to a decrease in the production of Aβ40. The cells were treated for 24 h at concentrations ranging from 0.001 to 10 μM, and Aβ40 levels were measured by Aβ40 ELISA. […] In FIG. 2, the data are presented as in FIG. 1, with “*” and “**” having the same meaning. […] In general, there was good agreement between an ability of a present benzolactam to increase sAPPα and its ability to decrease Aβ40.
# [4] = system: acetylated histone H4 in primary cortical neurons; assay: Western blot of histone H4 acetylation; assay type: cell-based, rat
# Description: (§2) Primary neurons and cell culture: Cell cultures were obtained from the cerebral cortex of fetal Sprague-Dawley rats (embryonic day 17), as described previously. All experiments were initiated 24 hours after plating. Under these conditions, the cells are not susceptible to glutamate-mediated excitotoxicity.
# Histone precipitation and Western blot analysis: Treated neurons (about 1×10^6) were incubated in hypotonic lysis buffer (1 mL) containing Tris-HCl (pH 8.0, 10 mM), KCl (1 mM), MgCl2 (1.5 mm), DTT (1 mM), aprotinin (1 mM), pepstatin (1 mM), and PMSF (0.4 mM) for 30 minutes, rotating at 4° C. Nuclei were pelleted by centrifugation for 10 minutes at 10,000 rpm (9000 g), resuspended in H2SO4 (0.4N, 200 μL), and rotated for 12 hours at 4° C. Following centrifugation at 13,000 rpm (16,000 g value) for 10 minutes, the supernatant was transferred to anew tube, and the histone proteins were precipitated by adding 100% trichloroacetic acid (TCA: 66 μL) dropwise followed by 30 minutes incubation on ice. Histone proteins were pelleted by centrifugation at 13,000 rpm (16,000 g) for 10 minutes, washed twice with ice-cold acetone, dried at room temperature for 20-40 minutes, and resuspended in H2O ([…]). Total histone proteins (20 μL) were boiled in Laemmli buffer and electrophoresed under reducing conditions on 15% polyacrylamide gel. Histone proteins were transferred to a nitrocellulose membrane (Bio-Rad, Hercules, Calif.). Nonspecific binding was inhibited by incubation in Tris-buffered saline with Tween 20 (TBST: 50 mM Tris-HCl pH 8.0, 0.9% NaCl, and 0.1% Tween 20) containing 5% nonfat dried milk for at least 1.5 hours. Primary antibodies against acetylated histone H4 or total histone H4 (Upstate) were diluted 1:1000 or 1:4000, respectively, in TBST containing 5% milk and incubated with the membrane for 3 hours at room temperature, followed by incubation with anti-rabbit horseradish peroxidase-conjugated secondary antibodies for 2 h at room temperature. Acetyl histone H4 and total histone H4 immunoreactivity was detected according to the enhanced chemiluminescent protocol (Amersham Biosciences, Fairfield, Conn.).
# To illustrate the HDAC-inhibitory activity of the present benzolactams, an ability of the compounds to alter histone acetylation levels was examined. FIG. 3 contains Western blot analyses showing the effect of percent benzolactam compounds at 10 μM (FIG. 3A) and 20 μM (FIG. 3B) in the acetylation levels of histone H4. Cultures of primary cortical neurons were treated with the various benzolactam compounds (at 10 μM) for a period of 8 hours, and Western blot analysis then was performed using acetyl-histone H4-specific antibodies (FIG. 3A).
# [5] = system: primary cortical neurons; assay: HCA oxidative stress neuroprotection, cortical neurons (MTT); assay type: cell-based, rat; conditions: up to 20 μM, presence of HCA, 48 hours
# Description: as §2
# Oxidative toxicity and neuron viability assays: For cytotoxicity studies, cells were rinsed with warm phosphate-buffered saline (PBS), then placed in minimum essential medium (Invitrogen, Carlsbad, Calif.) containing glucose (5.5 g L^−1), 10% fetal calf serum, L-glutamine (2 mM), and cysteine (100 μM). Oxidative stress was induced by the addition of the glutamate analogue HCA ([…]) to the media. HCA was diluted from 100-fold concentrated solutions that were adjusted to pH 7.5. In combination with HCA, TSA, SAHA, or the novel PKC-HDAC compounds were added at various concentrations. Viability was assessed after 48 hours by calceinacetoxymethyl ester (AM)/ethidium homodimer-1 staining (live/dead assay; Molecular Probes, Eugene, Oreg., USA) under fluorescence microscopy and the MTT assay method. Each bar represents the mean ±SEM of four replicates.
# In this model of neurodegeneration, oxidative stress is induced by the presence of the glutamate analogue homocysteate (HCA) at a concentration of 5 mM, which depletes the cellular antioxidant glutathione through competitive inhibition of cysteine uptake at the level of the plasma membrane cysteine/glutamate antiporter system xc-. […]
# (§3) In one embodiment, the present invention relates to a method of treating an individual suffering from a disease or condition wherein activation of PKC and inhibition of HDAC provides a benefit comprising administering a therapeutically effective amount of a compound of structural formula (I) to an individual in need thereof. […] Neuron survival was quantified by MTT assay, a colorimetric assay in which the amount of yellow MTT is reduced to purple formazan by active mitochondrial reductase enzymes in viable cells.
# [6] = system: APP-[V717I] transgenic mice; conditions: in vivo; cited from earlier work
# [7] = system: AD cells; conditions: cited from earlier work
# [8] = system: AD cells; conditions: cited from earlier work; remark: listed apart in the source
# [9] = system: primary cortical neurons; assay: neuron viability in the absence of HCA (MTT); assay type: cell-based, rat; conditions: concentration not given
# Description: as §2
# Oxidative toxicity and neuron viability assays: For cytotoxicity studies, cells were rinsed with warm phosphate-buffered saline (PBS), then placed in minimum essential medium (Invitrogen, Carlsbad, Calif.) containing glucose (5.5 g L^−1), 10% fetal calf serum, L-glutamine (2 mM), and cysteine (100 μM). […] Viability was assessed after 48 hours by calceinacetoxymethyl ester (AM)/ethidium homodimer-1 staining (live/dead assay; Molecular Probes, Eugene, Oreg., USA) under fluorescence microscopy and the MTT assay method. […]
# as §3
# [10] = mouse PKCα, read-out: K1[nm] ± SEM
# [11] = concentration not given in the sentence (FIG. 3: 10 and 20 μM)
compound,measurement,setting,value
"CC(C)[C@H]1C(=O)N[C@H](CO)Cc2ccc(O)cc2N1C [Compound 2, 9-Hydroxy-5-hydroxymethyl-2-isopropyl-1-methyl-(2S,5S)-1,4,5,6-tetrahydro-2H-benzo[e][1,4]diazocin-3-one]",Ki,[1],4840 ± 320 nM
"CC(=O)SCCCCCCCOc1ccc2c(c1)N(C)C(C(C)C)C(=O)NC(CO)C2 (stereo not drawn) [Compound 13, Thioacetic acid S-[7-(5-hydroxymethyl-2-isopropyl-1-methyl-3-oxo-1,2,3,4,5,6-hexahydrobenzo[e][1,4]diazocin-9-yloxy)heptyl] ester]",sAPPα levels,[2]; 10 μm,increase in sAPPα levels
same,Aβ40 levels,[3]; 1-10 μM,significant decrease in Aβ40 levels
same,Ki,[1],4.5 ± 0.4 nM
"C=CCCCCCOc1ccc2c(c1)N(C)C(C(C)C)C(=O)NC(CO)C2 (centres unmarked) [Compound 3, 9-Hept-6-enyloxy-5-hydroxymethyl-2-isopropyl-1-methyl-1,4,5,6-tetrahydro-2H-benzo[e][1,4]diazocin-3-one]",histone H4 acetylation,[4]; 20 μM,did not increase histone H4 acetylation
same,neuroprotection,[5],no neuroprotection
"CCCCCCCCC#Cc1ccc2c(c1)CC(CO)NC(=O)C(C(C)C)N2C (centres unmarked) [BL, 8-(1-decynyl)benzolactam]",Aβ40 in the brains,[6],decrease
same,amount of sAPPα in the brains,[6],significantly increase
same,K+ channel defects,[7],reverses
same,secretion of sAPPα,[8],enhances the secretion of sAPPα
"CC(=O)SCCCCCCCCOc1ccc2c(c1)N(C)C(C(C)C)C(=O)NC(CO)C2 (stereo not drawn) [Compound 14, Thioacetic acid S-[8-(5-hydroxymethyl-2-isopropyl-1-methyl-3-oxo-1,2,3,4,5,6-hexahydrobenzole[e][1,4]diazocin-9-yloxy)octyl] ester]",sAPPα levels,[2]; 1-10 μm,increase in sAPPα levels
same,Aβ40 levels,[3]; 1-10 μM,significant decrease in Aβ40 levels
"CC(=O)SCCCCCCOc1ccc2c(c1)N(C)C(C(C)C)C(=O)NC(CO)C2 (stereo not drawn) [Compound 12, Thioacetic acid S-[6-(5-hydroxymethyl-2-isopropyl-1-methyl-3-oxo-1,2,3,4,5,6-hexahydrobenzo[e][1,4]diazocin-9-yloxy)hexyl] ester]",sAPPα levels,[2]; 1-10 μm,increase in sAPPα levels
same,Aβ40 levels,[3]; 10 μM,significant decrease in Aβ40 levels
same,Ki,[1]; [10],8.7 ± 0.7 nM
"CC(/C=C/C(=O)NO)=C\[C@@H](C)C(=O)c1ccc(N(C)C)cc1 [TSA, trichostatin A]",toxicity in neuron viability measurements,[9],considerable dose dependent toxicity
"CC(=O)SCCCCOc1ccc2c(c1)N(C)C(C(C)C)C(=O)NC(CO)C2 (stereo not drawn) [Compound 10, Thioacetic acid S-[4-(5-hydroxymethyl-2-isopropyl-1-methyl-3-oxo-1,2,3,4,5,6-hexahydrobenzo[e][1,4]diazocin-9-yloxy)butyl] ester]",sAPPα levels,[2]; 1 nM,statistically significant elevation in sAPPα
same,Aβ40 levels,[3]; 10 μM,significant decrease in Aβ40 levels
same,histone H4 acetylation,"[4]; 10 μM, 8 hours",less effective at inducing histone H4 acetylation
same,histone H4 acetylation,[4]; 20 μM,modest acetylation was observed
"CC(C)[C@H]1C(=O)N[C@H](CO)Cc2ccc(OC(=O)CCCCC3CCSS3)cc2N1C (stereo partly drawn) [Compound 7, (2S,5S)-1,2,3,4,5,6-Hexahydro-5-(hydroxymethyl)-2-isopropyl-1-methyl-3-oxobenzo[e][1,4]diazocin-9-yl-5-(1,2-dithiolan-3-yl)pentanoate]",histone H4 acetylation,[4]; [11],failed to induce histone H4 acetylation
same,neuroprotection,[5],no neuroprotection
same,Ki,[1]; [10],5.7 ± 1 nM
"CC(C)[C@H]1C(=O)N[C@H](CO)Cc2ccc(OCCNC(=O)CCCCC3CCSS3)cc2N1C (stereo partly drawn) [Compound 6, 1N-{2-[5-Hydroxymethyl-2-isopropyl-1-methyl-3-oxo-(2S,5S)-1,2,3,4,5,6-hexahydrobenzo[e][1,4]diazocin-9-yloxy]ethyl}-5-(1,2-dithiolan-3-yl)pentanamide]",histone H4 acetylation,[4]; [11],failed to induce histone H4 acetylation
same,neuroprotection,[5],no neuroprotection
same,Ki,[1]; [10],148 ± 18 nM
"CC(=O)SCCCOc1ccc2c(c1)N(C)C(C(C)C)C(=O)NC(CO)C2 (stereo not drawn) [Compound 9, Thioacetic acid S-[3-(5-hydroxymethyl-2-isopropyl-1-methyl-3-oxo-1,2,3,4,5,6-hexahydrobenzole[e][1,4]diazocin-9-yloxy)propyl]ester]",sAPPα levels,[2]; 10 μm,increase in sAPPα levels
same,Aβ40 levels,[3]; 10 μM,significant decrease in Aβ40 levels
same,histone H4 acetylation,"[4]; 10 μM, 8 hours",less effective at inducing histone H4 acetylation
same,histone H4 acetylation,[4]; 20 μM,modest acetylation was observed
"CC(=O)SCCCCCOc1ccc2c(c1)N(C)C(C(C)C)C(=O)NC(CO)C2 (stereo not drawn) [Compound 11, Thioacetic acid S-[5-(5-hydroxymethyl-2-isopropyl-1-methyl-3-oxo-1,2,3,4,5,6-hexahydrobenzo[e][1,4]diazocin-9-yloxy)pentyl] ester]",sAPPα levels,[2]; 10 μm,increase in sAPPα levels
same,Aβ40 levels,[3]; 10 μM,significant decrease in Aβ40 levels
